pIC50: −log10 of the molar value. Activity calls are given as the source filed them. The rule behind the calls is not given here.
How the values were obtained:
[1] = target: T1, Protein cereblon/Son of sevenless homolog 1 (Homo sapiens, UniProt Q07889+Q96SW2); assay: PROTAC activity at CRBN/SOS1 in human NCI-H358 cells assessed as induction of SOS1 degradation at > 1 uM incubated for 6 hrs by Western blotting analysis; type: cell-based
Target sequence in this assay (Q07889 whole entry, looked up): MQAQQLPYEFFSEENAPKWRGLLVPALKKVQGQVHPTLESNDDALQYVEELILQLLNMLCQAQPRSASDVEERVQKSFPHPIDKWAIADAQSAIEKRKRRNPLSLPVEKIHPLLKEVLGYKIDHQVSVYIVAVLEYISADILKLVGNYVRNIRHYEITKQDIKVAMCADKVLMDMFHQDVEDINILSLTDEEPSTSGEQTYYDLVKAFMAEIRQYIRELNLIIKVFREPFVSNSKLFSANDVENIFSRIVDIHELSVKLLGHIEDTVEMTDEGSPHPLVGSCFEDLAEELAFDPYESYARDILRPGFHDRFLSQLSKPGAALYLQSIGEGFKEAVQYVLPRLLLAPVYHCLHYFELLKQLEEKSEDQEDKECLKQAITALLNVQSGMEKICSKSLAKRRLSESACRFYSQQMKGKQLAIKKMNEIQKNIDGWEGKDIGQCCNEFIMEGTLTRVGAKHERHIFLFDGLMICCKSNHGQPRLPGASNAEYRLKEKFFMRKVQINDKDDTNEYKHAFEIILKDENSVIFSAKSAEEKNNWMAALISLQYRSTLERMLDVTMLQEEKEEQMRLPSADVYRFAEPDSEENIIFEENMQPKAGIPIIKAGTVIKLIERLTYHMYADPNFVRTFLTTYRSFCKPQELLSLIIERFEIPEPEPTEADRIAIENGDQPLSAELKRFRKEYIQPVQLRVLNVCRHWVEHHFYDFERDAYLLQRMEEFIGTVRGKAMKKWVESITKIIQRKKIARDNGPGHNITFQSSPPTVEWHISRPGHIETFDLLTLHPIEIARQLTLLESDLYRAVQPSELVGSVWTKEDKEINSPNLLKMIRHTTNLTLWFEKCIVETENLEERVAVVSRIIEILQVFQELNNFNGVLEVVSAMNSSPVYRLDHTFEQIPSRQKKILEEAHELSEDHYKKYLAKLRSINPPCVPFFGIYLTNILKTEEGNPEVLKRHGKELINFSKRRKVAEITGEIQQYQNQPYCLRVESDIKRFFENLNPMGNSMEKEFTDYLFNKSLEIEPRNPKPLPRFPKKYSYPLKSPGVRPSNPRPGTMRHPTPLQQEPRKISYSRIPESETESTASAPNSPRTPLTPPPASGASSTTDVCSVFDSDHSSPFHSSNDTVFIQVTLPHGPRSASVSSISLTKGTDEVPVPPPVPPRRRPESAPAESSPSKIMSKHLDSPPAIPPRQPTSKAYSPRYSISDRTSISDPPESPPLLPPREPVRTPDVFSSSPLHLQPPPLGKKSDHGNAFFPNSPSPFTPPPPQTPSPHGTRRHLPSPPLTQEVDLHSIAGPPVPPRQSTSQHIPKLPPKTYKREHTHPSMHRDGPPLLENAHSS
Target sequence in this assay (Q96SW2 whole entry, looked up): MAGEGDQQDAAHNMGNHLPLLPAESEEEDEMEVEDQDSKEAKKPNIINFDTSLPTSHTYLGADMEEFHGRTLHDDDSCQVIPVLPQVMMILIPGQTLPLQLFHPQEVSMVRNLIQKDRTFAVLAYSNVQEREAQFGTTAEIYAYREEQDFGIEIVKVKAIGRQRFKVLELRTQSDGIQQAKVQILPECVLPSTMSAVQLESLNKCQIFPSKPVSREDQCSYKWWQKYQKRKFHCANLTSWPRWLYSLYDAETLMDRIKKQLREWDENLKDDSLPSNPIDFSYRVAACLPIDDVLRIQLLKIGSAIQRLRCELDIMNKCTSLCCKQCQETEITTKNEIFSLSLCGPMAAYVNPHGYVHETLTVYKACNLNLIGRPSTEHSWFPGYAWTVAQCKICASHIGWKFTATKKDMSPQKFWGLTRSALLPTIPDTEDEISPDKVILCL

[2] = AUC (0 to t) in BALB/c nude mouse at 10 mg/kg, ip measured upto 24 hrs by LC-MS/MS analysis; type: ADME, organism-based; conditions: in vivo
NCI-H358 [3] = assay: Antiproliferative activity against human NCI-H358 cells harboring G12C mutant assessed as inhibition of cell proliferation incubated for 7 days by celltiter-glo 3D assay; type: functional, cell-based; conditions: NCI-H358, 168 h
NCI-H358 [4] = assay: Antitumor activity against human NCI-H358 cells xenografted in BALB/c nude mouse assessed as tumor growth inhibition at 30 mg/kg, ip measured twice daily for 21 days; type: functional; conditions: NCI-H358, 504 h, time 21 day, read-out: TGI
[5] = Toxicity in BALB/c nude mouse xenografted with human NCI-H358 cells assessed as body weight loss at 30 mg/kg, ip measured every 3 days for 21 days; type: organism-based; conditions: in vivo, 504 h, time 21 day
NCI-H358 [6] = assay: Potency index, ratio of test compound IC50 to BI3406 IC50 for antiproliferative activity against human NCI-H358 cells assessed as inhibition of cell proliferation incubated for 7 days by celltiter-glo 3D assay; type: functional; conditions: time 7 day
[7] = target: T1, Protein cereblon/Son of sevenless homolog 1; assay: PROTAC activity at CRBN/SOS1 in human NCI-H358 cells assessed as induction of SOS1 degradation at 0.1 to 1 uM incubated for 6 hrs by Western blotting analysis; type: cell-based; conditions: dose 0.1-1 µM
Target sequence in this assay (Q07889 whole entry, looked up): as the sequence (Q07889 whole entry, looked up) above
Target sequence in this assay (Q96SW2 whole entry, looked up): as the sequence (Q96SW2 whole entry, looked up) above

DLD-1 = assay: Antiproliferative activity against human DLD-1 cells harboring G13D mutant assessed as inhibition of cell proliferation incubated for 7 days by celltiter-glo 3D assay; type: functional, cell-based; conditions: DLD-1, 168 h
[8] = Cmax in BALB/c nude mouse at 10 mg/kg, ip measured upto 24 hrs by LC-MS/MS analysis; type: ADME, organism-based; conditions: in vivo
[9] = Half life in BALB/c nude mouse at 10 mg/kg, ip measured upto 24 hrs by LC-MS/MS analysis; type: ADME, organism-based; conditions: in vivo
Cytochrome P450 3A4 = Cytochrome P450 3A4 (Homo sapiens, UniProt P08684); assay: Inhibition of CYP3A4 in human liver microsome preincubated with compound for 5 mins followed by NADPH addition and measured after 5 mins by LC-MS/MS analysis; type: ADME, microsomes
Chain of Cytochrome P450 3A4 (P08684 whole entry): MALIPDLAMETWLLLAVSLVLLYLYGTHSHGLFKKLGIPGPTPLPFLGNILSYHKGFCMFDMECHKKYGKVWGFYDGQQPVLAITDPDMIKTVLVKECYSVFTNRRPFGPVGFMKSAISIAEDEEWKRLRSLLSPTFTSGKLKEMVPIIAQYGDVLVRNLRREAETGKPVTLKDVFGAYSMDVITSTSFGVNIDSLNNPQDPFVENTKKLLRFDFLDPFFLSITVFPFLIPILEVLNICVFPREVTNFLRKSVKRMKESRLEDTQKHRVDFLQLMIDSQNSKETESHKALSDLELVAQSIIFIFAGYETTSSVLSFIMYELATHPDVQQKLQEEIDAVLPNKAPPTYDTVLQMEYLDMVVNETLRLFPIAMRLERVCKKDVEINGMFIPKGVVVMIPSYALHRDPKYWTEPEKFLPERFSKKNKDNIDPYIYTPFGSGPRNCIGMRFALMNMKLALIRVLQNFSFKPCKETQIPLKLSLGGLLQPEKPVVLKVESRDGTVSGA

NCI-H358 [10] = assay: Antiproliferative activity against human NCI-H358 cells assessed as inhibition of cell proliferation incubated for 7 days by celltiter-glo 3D assay; type: functional, cell-based; conditions: NCI-H358, 168 h
[11] = target: T1, Protein cereblon/Son of sevenless homolog 1; assay: PROTAC activity at CRBN/SOS1 in human NCI-H358 cells assessed as induction of SOS1 degradation incubated for 6 hrs by Western blotting analysis; type: cell-based; conditions: read-out: DC50
Target sequence in this assay (Q07889 whole entry): as the sequence (Q07889 whole entry, looked up) above
Target sequence in this assay (Q96SW2 whole entry): as the sequence (Q96SW2 whole entry, looked up) above

[12] = AUC (0 to infinity) in BALB/c nude mouse at 10 mg/kg, ip measured upto 24 hrs by LC-MS/MS analysis; type: ADME, organism-based; conditions: in vivo
[13] = target: Voltage-gated inwardly rectifying potassium channel KCNH2 (Homo sapiens, UniProt Q12809); assay: Inhibition of hERG at -80 mV holding potential by whole cell patch clamp recording assay; type: toxicity
Chain of Voltage-gated inwardly rectifying potassium channel KCNH2 (Q12809 whole entry): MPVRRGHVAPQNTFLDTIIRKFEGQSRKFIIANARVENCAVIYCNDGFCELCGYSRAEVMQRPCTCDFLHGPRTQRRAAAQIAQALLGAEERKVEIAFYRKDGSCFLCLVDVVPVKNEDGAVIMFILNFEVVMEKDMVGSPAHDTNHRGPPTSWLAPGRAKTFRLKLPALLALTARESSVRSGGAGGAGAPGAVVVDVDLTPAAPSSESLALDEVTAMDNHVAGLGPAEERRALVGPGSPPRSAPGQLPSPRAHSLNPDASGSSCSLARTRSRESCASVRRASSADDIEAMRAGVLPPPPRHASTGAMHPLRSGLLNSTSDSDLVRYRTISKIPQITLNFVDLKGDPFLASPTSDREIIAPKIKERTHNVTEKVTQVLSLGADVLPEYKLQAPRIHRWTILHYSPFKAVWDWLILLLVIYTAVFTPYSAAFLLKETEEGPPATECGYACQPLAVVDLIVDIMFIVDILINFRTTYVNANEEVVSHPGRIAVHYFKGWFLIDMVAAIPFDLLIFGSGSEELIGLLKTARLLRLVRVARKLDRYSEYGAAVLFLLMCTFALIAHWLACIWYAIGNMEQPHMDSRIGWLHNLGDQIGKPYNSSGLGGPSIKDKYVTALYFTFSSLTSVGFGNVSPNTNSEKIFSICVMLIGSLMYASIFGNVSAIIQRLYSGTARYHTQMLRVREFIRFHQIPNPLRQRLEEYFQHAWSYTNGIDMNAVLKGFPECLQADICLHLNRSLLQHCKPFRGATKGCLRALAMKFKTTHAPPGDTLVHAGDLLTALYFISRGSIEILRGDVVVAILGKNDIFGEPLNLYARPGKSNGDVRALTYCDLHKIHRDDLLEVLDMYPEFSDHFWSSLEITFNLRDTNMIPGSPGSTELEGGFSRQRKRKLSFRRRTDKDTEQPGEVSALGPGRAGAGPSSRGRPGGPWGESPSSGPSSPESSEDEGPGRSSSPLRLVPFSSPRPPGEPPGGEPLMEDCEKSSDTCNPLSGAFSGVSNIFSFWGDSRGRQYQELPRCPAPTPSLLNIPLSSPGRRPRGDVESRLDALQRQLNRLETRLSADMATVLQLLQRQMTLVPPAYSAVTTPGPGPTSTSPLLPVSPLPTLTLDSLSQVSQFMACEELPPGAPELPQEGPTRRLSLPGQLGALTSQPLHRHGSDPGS

NCI-H441 = assay: Antiproliferative activity against human NCI-H441 cells harboring G12V mutant assessed as inhibition of cell proliferation incubated for 7 days by celltiter-glo 3D assay; type: functional, cell-based; conditions: NCI-H441, 168 h
[14] = Tmax in BALB/c nude mouse at 10 mg/kg, ip measured upto 24 hrs by LC-MS/MS analysis; type: ADME, organism-based; conditions: in vivo
[15] = Antiproliferative activity against human GP2d cells harboring G12D mutant assessed as inhibition of cell proliferation incubated for 7 days by celltiter-glo 3D assay; type: functional, cell-based; conditions: 168 h

Activity [1]: inactive | AUC(0-t) at 24 h [2]: 4370 ng·h/mL | pIC50 (NCI-H358 [3]): 8.30 | Activity [7]: Active | pIC50 (DLD-1): 7.20 | Cmax [8]: 1870 ng/mL | half-life [9]: 4.05 h | pIC50 (Cytochrome P450 3A4): 6.49 | pIC50 (NCI-H358 [10]): 8.30 | DC50 [11]: 0.013 µM | AUC(0-inf) [12]: 4380 ng·h/mL | pIC50 (NCI-H441): 7.37 | Tmax [14]: 1 h
SMILES: COc1cc2nc(C)nc(N[C@H](C)c3cc(N)cc(C(F)(F)F)c3)c2cc1OCC1(CN(C)C(=O)CCCCCCNc2cccc3c2C(=O)N(C2CCC(=O)NC2=O)C3=O)CC1 (stereo partly drawn)
inhibition in vivo at 30 mg/kg (NCI-H358 [4]): 58.8% | Activity [5]: Non-Toxic | Ratio IC50 (NCI-H358 [6]): 5 | pIC50 [13]: < 4.52 | pIC50 [15]: 5.67

Source: ChEMBL document CHEMBL5537174, “Discovery of Potent SOS1 PROTACs with Effective Antitumor Activities against NCI-H358 Tumor Cells In Vitro/In Vivo” (J Med Chem, 2024)
